Source: PMC9673926, “Nucleotide binding as an allosteric regulatory mechanism for Akkermansia muciniphila β-N-acetylhexosaminidase Am2136” (Gut Microbes, 2022)
Residue numbers refer to the chain shown, from its start.

Legend:
[1] = target: T1, Am2136 WT (Akkermansia muciniphila, UniProt B2UPR7); test: Nucleotide binding affinity by intrinsic fluorescence
T1 construct: The coding region (residue Q20-L756) of Am2136 without signal peptide was based on UniProt; 6XHis (N); made in house; host or cells: E. coli BL21 (DE3)
T1 sequence (B2UPR7 20-756): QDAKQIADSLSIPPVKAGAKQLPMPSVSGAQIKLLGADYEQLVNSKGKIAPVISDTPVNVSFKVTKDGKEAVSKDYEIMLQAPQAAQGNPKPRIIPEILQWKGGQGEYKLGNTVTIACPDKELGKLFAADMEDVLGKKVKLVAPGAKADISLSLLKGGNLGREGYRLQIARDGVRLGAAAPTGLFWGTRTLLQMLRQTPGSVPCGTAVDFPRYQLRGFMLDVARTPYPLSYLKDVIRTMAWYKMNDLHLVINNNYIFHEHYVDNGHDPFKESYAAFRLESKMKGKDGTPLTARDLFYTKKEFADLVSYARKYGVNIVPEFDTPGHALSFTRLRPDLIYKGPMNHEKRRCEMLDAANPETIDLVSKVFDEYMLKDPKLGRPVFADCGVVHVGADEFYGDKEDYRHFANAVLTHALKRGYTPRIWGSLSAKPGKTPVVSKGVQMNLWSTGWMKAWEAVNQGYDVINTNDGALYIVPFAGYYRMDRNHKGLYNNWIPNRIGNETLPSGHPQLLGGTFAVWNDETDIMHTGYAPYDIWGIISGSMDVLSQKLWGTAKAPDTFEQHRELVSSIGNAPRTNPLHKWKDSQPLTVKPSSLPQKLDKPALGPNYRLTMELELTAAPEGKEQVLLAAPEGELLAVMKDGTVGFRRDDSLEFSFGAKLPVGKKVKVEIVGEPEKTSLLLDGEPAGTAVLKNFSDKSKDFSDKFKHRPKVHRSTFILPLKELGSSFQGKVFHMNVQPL
Description: The nucleotide binding ability was determined on Fluorescence Spectrometer Duetta (HORIBA) by measuring the change of peak intensity. The fluorescence was excited at 286 nm and emitted at 336 nm. And the measurement was processed under 400 V voltage with 2.5 nm excitation slit and 5 nm emission slit. […] The sample was incubated at 4°C for 5 min before testing.

[2] = target: T1, Am2136 WT; test: Enzyme activity assay (pNP-β-GlcNAc hydrolysis) regulated by nucleotides; type: biochemical
[3] = target: T2, Am2136 Y550A (Akkermansia muciniphila, UniProt B2UPR7, Y550A); test: GDP regulated enzyme activity assay, mutant; settings: 1 mM GDP, substrate pNP-β-GlcNAc
T2 sequence (B2UPR7 20-756 Y550A): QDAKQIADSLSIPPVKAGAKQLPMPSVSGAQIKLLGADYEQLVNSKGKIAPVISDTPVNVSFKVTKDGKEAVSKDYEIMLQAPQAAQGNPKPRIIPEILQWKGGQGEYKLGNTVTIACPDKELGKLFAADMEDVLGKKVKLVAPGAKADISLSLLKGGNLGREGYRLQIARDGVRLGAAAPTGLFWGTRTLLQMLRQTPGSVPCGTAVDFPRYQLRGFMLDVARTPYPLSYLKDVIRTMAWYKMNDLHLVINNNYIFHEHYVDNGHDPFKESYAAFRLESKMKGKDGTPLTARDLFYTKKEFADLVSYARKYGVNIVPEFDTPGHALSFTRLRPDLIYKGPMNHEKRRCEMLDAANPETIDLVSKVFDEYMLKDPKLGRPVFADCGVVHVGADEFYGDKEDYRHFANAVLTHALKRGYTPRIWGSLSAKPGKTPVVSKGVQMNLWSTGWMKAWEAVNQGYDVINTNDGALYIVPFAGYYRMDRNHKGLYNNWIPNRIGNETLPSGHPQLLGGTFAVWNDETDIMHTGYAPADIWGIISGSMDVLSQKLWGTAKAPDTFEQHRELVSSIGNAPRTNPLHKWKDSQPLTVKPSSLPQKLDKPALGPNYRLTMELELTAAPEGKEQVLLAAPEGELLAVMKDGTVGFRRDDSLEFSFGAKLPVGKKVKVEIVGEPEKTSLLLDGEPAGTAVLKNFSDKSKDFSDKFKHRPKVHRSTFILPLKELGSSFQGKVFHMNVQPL

[4] = target: T3, Am2136 E649A (Akkermansia muciniphila, UniProt B2UPR7, E649A); test: GDP regulated enzyme activity assay, mutant; settings: 1 mM GDP, substrate pNP-β-GlcNAc
T3 sequence (B2UPR7 20-756 E649A): T2 sequence (B2UPR7 20-756 Y550A) with A531Y, E630A

[5] = target: T4, Am2136 R256A (Akkermansia muciniphila, UniProt B2UPR7, R256A); test: GDP regulated enzyme activity assay, mutant; settings: 1 mM GDP, substrate pNP-β-GlcNAc
T4 sequence (B2UPR7 20-756 R256A): T2 sequence (B2UPR7 20-756 Y550A) with R237A, A531Y

Work on `Nc1nc2c(ncn2[C@@H]2O[C@H](COP(=O)(O)OP(=O)(O)O)[C@@H](O)[C@H]2O)c(=O)[nH]1` [GDP] yielded a Kd ([1]; Am2136 WT, fluorescence ex 286 nm/em 336 nm) of 116 µM, a Kd ([1]; WT dialyzed (EDTA treated)) of 114 ± 5.22 µM and a Kd ([1]; WT dialyzed + Ca^2+) of 117 ± 4.37 µM. For the same compound, the Kd ([1]; WT dialyzed + Mg^2+) was 118 ± 5.85 µM, the “maximal activation of Am2136” value ([2]; 1 mM GDP) was “up to twofold” and the “effect on Am2136 hydrolysis activity” value ([2]; GDP 0–2.65 mM, substrate pNP-β-GlcNAc) was “concentration-dependent enhancement”. The Vmax ([2]; WT, 1 mM nucleotide, substrate pNP-β-GlcNAc, 37°C) was 442 ± 7 µmol/min, the Vmax [3] was 463 ± 7 µmol/min and the Vmax [4] was 453 ± 6 µmol/min. It also gave a Vmax [5] of 465 ± 15 µmol/min.
